Results published in patent US20240156847A1 (priority 2022, published 2024).

How the values were obtained:
PRV-GFP strain = assay type: cell-based, Pseudorabies virus
PRV-HeNLH/2017 strain = assay type: cell-based, Pseudorabies virus
[1] = test system: PRV gE protein (PRV-HeNLH/2017 strain); assay type: cell-based, Pseudorabies virus

SMILES: O=C(O)[C@H]1O[C@@H](Oc2cc3oc(-c4ccccc4)cc(=O)c3c(O)c2O)[C@H](O)[C@@H](O)[C@@H]1O [baicalin]
- inhibition of proliferation of PRV-GFP strain (green fluorescence) (PRV-GFP strain): inhibited the proliferation of PRV-GFP strains at the using concentrations, and the inhibitory effect was more significant at 62.5 and 125 μM
- effect on cell viability (cytotoxicity) (PK-15 cells): no significant effect on cell viability
- inhibition of PRV proliferation (virus titer, TCID50) (PRV-HeNLH/2017 strain): significantly inhibited the proliferation of PRV on PK-15 cells
- inhibition of expression of PRV gE protein [1]: significantly inhibited the expression of PRV gE protein
